pIC50: −log10 of the molar value. Like-named read-outs stand apart in the source and are kept apart here. Numbered stars: 1 amine (or outer) side, 2 acyl side, 3 side chain; on linkers, the order of the positions; unused ones are H or OH. Bridge positions count the residues as written; N and C are the ends. Square brackets hold non-standard residues; d marks the D form. Peptide text beside a SMILES is read from it. Tartaroyl(2R,3R-(OAc)2) = CC(=O)O[C@@H](C(=O)[*:1])[C@@H](OC(C)=O)C(=O)[*:2]; Phe(4-CF3) = N[C@@H](Cc1ccc(C(F)(F)F)cc1)C(=O)O; dPhe(4-CF3) = N[C@H](Cc1ccc(C(F)(F)F)cc1)C(=O)O; Bip = N[C@@H](Cc1ccc(-c2ccccc2)cc1)C(=O)O; dPhe(4-NH2) = Nc1ccc(C[C@@H](N)C(=O)O)cc1; Phe(4-Br) = N[C@@H](Cc1ccc(Br)cc1)C(=O)O; Phe(4-NH2) = Nc1ccc(C[C@H](N)C(=O)O)cc1; d(hPhe) = N[C@H](CCc1ccccc1)C(=O)O; 2Thi = N[C@@H](Cc1cccs1)C(=O)O; d2Thi = N[C@H](Cc1cccs1)C(=O)O; Suc = O=C(CCC(=O)[*:2])[*:1]; Ac3c = NC1(C(=O)O)CC1; βAla = NCCC(=O)O
Experiments:
[1] = tested on: TNF-α (degradation of IkB in HeLa cells or A431 cells); experiment: Human cell-based assay: inhibition of TNF-α induced degradation of IkB; settings: for inhibition at 10 µM: read-out: Inhibition at Various Compound Concentrations, 10 μM; for inhibition at 5 µM: read-out: Inhibition at Various Compound Concentrations, 5 μM; for inhibition at 25 µM: 25 μM compound, read-out: Inhibition at Various Compound Concentrations, 25 μM
Method: We used a human cell-based assay to determine the TNF-α antagonistic activity of the compounds of this invention based upon the ability of the compounds to inhibit the degradation of IkB in those cells. The assay was performed on either HeLa cells or A431 cells.
On Day 1, wells of a 24-well tissue culture plate were seeded with cells that had been harvested from cultures in T-75 flasks by standard trypsin/EDTA treatment. The harvested cells were suspended in EMEM/10% FBS/P/S (100,000 HeLa cells/mL or 200,000 A431 cells/mL) and 1 mL aliquots were placed into each well. The cells were incubated overnight at 37° C. in a humidified CO2 incubator. On day 2, the cells were approximately 95% confluent.
Test and control compounds were diluted to a 1 mM solution by dilution in DMSO. The assay was run in Costar tubes. Into each tube was placed 2.5 or 5.0 μL of test compound (for testing 5 μM and 10 μM concentrations, respectively), 2.5 μL of 100× TNF-α solution (200 ng/mL TNF-α in EMEM containing 1μg/mL cycloheximide) and, for those tubes containing 2.5 μL of compound, an additional 2.5 μL of DMSO. To each tube was then added 0.5 mL of EMEM containing 1μg/mL cycloheximide. Negative control tubes contained either a) no compound, or b) no TNF-α. Tubes were then incubated for 30 minutes at room temperature.
Once incubation had begun, the media was aspirated from the cells in the 24-well plates. Sufficient EMEM/10% FBS/P/S containing 1 ug/mL cycloheximide was then added to cover the cells (approximately 3 mL) and the cells were retuned to the 37° C. humidified CO2 incubator until compound incubation was completed. The media was then aspirated from the cells, 0.2 mL of the compound solution was added and the cells re-incubated at 37° C. for 30 minutes. The plates were then placed on ice, the compound solution was aspirated from each well, and the cells washed once with 1 mL of cold PBS. Cells were then fixed with 500 μL of 3.7% formaldehyde in PBS (“fix solution”) for 20 minutes at room temperature. The fix solution was decanted and the cells permeabilized by 4× washing with 500 uL PBS/0.1% Triton X-100. After the final permeabilization wash, the cells were treated with 500 uL of Odyssey blocking buffer (OBB) and incubated at room temperature with shaking for 90 minutes.
The OBB was decanted and then to each well was then added 125 μL each of mouse anti-IkB CST#4814 (diluted 1:200 in OBB) and rabbit anti-beta-tubulin CST#2146 (diluted 1:200 in OBB). Plates were sealed with parafin and incubated overnight at room temperature with shaking.
On day 3, the antibody solution was removed from the cells and the cells were washed 5× with 0.5 mL PBST for five minutes each on a shaker. To each well was then aded 125 μL of a secondary antibody solution containing goat anti-mouse IgG-IRDye 800 and goat anti-rabbit IgG-IRDye (each diluted 1:500 in OBB+0.2% Tween 20). The plates were covered with aluminum foil and incubated for 1 hour at room temperature with shaking. The secondary antibody solution was removed and the cells washed 3× with 0.5 mL PBST for five minutes each on a shaker. Cells were then scanned by LICOR with the following settings: 700 intensity=6.0, 800 intensity=6.5; microplate2 settings with 3.0 mm offset; 169 resolution. LICOR values were fitted to an equation for a sigmoidal curve and IC50 values calculated from the fitted parameters. […] Blank cells indicate that the compound was not tested at that concentration. Certain compounds that were tested more than once and the values reflect the average of the multiple tests.

[2] = biological target: T1, TNFα / TNFα receptor (TNFα R1/Fc) (Homo sapiens, UniProt P01375); experiment: Inhibition of binding of TNFα to the TNFα receptor (plate ELISA competition); settings: Table 2
T1 construct: purchased R&D Systems
Outline: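 Compound dilutions were preincubated 30 min at RT with 8.33 nM TNFα R1/Fc in PBST with 2% DMSO, then added to wells coated with 15 nM TNFα for 30 min. Bound receptor was detected with HRP anti-human Fc and TMB, read as A450.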

[3] = 10 μM compound, HeLa or A431 cells
[4] = read-out: Activity (IC50, inhibition of TNFα binding to TNFα R1/Fc)
[5] = 5 μM compound, HeLa or A431 cells
[6] = Activity (IC50, inhibition of TNFα binding to TNFα R1/Fc)

T1 sequence (P01375 77-233 limits assumed, species assumed): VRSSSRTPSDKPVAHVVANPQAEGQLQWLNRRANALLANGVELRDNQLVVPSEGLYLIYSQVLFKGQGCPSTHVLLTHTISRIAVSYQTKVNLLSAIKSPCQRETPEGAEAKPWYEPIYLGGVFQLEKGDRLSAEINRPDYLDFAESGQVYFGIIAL

| SMILES | pIC50 [2, 4] | inhibition at 10 µM [1, 3] [%] | inhibition at 5 µM [1, 5] [%] | inhibition at 25 µM ([1]; HeLa or A431 cells) [%] | inhibition at 5 µM [1] [%] | inhibition at 10 µM [1] [%] | pIC50 [2, 6] |
| --- | --- | --- | --- | --- | --- | --- | --- |
| O=C(O)[C@@H]1Cc2ccc(cc2)NC(=O)[C@H](O)[C@@H](O)C(=O)N[C@H](Cc2ccsc2)C(=O)N[C@@H](Cc2ccc(-c3ccccc3)cc2)C(=O)N[C@H](Cc2ccccc2)C(=O)N1 [Compound 318] | > 5.00 | 10 to 50 | < 10 | – | – | – | – |
| O=C(O)[C@@H]1Cc2ccc(cc2)NC(=O)[C@H](O)[C@@H](O)C(=O)N[C@H](Cc2ccccc2)C(=O)N[C@@H](Cc2ccc(-c3ccccc3)cc2)C(=O)N[C@H](Cc2ccccc2)C(=O)N1 [Compound 313] | > 5.00 | 10 to 50 | < 10 | – | – | – | – |
| O=C1COc2ccc(cc2)C[C@@H](C(=O)N[C@@H](CCc2ccccc2)C(=O)O)NC(=O)[C@@H](CCc2ccccc2)NC(=O)[C@H](Cc2ccc(-c3ccccc3)cc2)NC(=O)[C@@H](Cc2cccs2)N1 [Compound 320] | – | – | – | – | 10 to 50 | > 80 | > 5.00 |
| O=C(O)CCNC(=O)[C@H]1Cc2ccc(cc2)NC(=O)CCC(=O)N[C@H](CCc2ccccc2)C(=O)N[C@@H](Cc2ccc(C(F)(F)F)cc2)C(=O)N[C@H](Cc2ccccc2)C(=O)N1 [Compound 15] ([d(hPhe)][Phe(4-CF3)][dF][dPhe(4-NH2)][βAla]-OH; linker N-4 via Suc) | 4.52 to 5.00 | < 10 | – | – | – | – | – |
| O=C1COc2ccc(cc2)C[C@@H](C(=O)N[C@@H](CCc2ccccc2)C(=O)O)NC(=O)[C@H](Cc2ccccc2)NC(=O)[C@H](Cc2ccc(-c3ccccc3)cc2)NC(=O)[C@H](Cc2cccs2)N1 [Compound 328] | – | – | – | – | – | 10 to 50 | > 5.00 |
| O=C1CCC(=O)N[C@H](Cc2ccc(C(F)(F)F)cc2)C(=O)N[C@@H](Cc2ccc(-c3ccccc3)cc2)C(=O)N[C@H](Cc2ccccc2)C(=O)N[C@H](C(=O)O)Cc2ccc(cc2)N1 [Compound 118] ([dPhe(4-CF3)][Bip][dF][Phe(4-NH2)]-OH; linker N-4 via Suc) | 4.52 to 5.00 | 10 to 50 | – | – | – | – | – |
| O=C1N[C@H](CCc2ccccc2)C(=O)N[C@@H](C(=O)O)Cc2ccc(cc2)NC(=O)[C@H](O)[C@@H](O)C(=O)N[C@H](Cc2ccccc2)C(=O)N[C@H]1Cc1ccc(Cl)cc1Cl [Compound 239] | > 5.00 | < 10 | < 10 | – | – | – | – |
| CC(=O)O[C@H]1C(=O)Nc2ccc(cc2)C[C@H](C(=O)N[C@@H](Cc2ccccc2)C(=O)O)NC(=O)[C@@H](Cc2ccccc2)NC(=O)[C@H](Cc2ccc(Br)cc2)NC(=O)[C@@H](Cc2cccs2)NC(=O)[C@@H]1OC(C)=O [Compound 410] ([d2Thi][Phe(4-Br)][dF][dPhe(4-NH2)]F-OH; linker N-4 via Tartaroyl(2R,3R-(OAc)2)) | > 5.00 | 10 to 50 | < 10 | – | – | – | – |
| O=C1CCC(=O)N[C@H](CCc2ccccc2)C(=O)N[C@@H](Cc2ccc(-c3ccccc3)cc2)C(=O)N[C@H](Cc2ccccc2)C(=O)N[C@H](C(=O)O)Cc2ccc(cc2)N1 [Compound 117] ([d(hPhe)][Bip][dF][Phe(4-NH2)]-OH; linker N-4 via Suc) | > 5.00 | 50 to 80 | < 10 | – | – | – | – |
| O=C1CCC(=O)N[C@H](CCc2ccccc2)C(=O)N[C@@H](Cc2ccc(C(F)(F)F)cc2)C(=O)N[C@H](Cc2ccccc2)C(=O)N[C@H](C(=O)NC2(C(=O)O)CC2)Cc2ccc(cc2)N1 [Compound 18] ([d(hPhe)][Phe(4-CF3)][dF][Phe(4-NH2)][Ac3c]-OH; linker N-4 via Suc) | 4.52 to 5.00 | 10 to 50 | 50 to 80 | – | – | – | – |
| O=C1COc2ccc(cc2)C[C@@H](C(=O)O)NC(=O)[C@H](Cc2ccccc2)NC(=O)[C@H](Cc2ccc(-c3ccc(C(=O)OCc4ccccc4)cc3)cc2)NC(=O)[C@H](Cc2cccs2)N1 [Compound 396] | > 5.00 | – | – | – | 10 to 50 | 50 to 80 | – |
| COc1ccc(-c2ccc(C[C@@H]3NC(=O)[C@H](Cc4cccs4)NC(=O)COc4ccc(cc4)C[C@@H](C(=O)O)NC(=O)[C@H](Cc4ccccc4)NC3=O)cc2)cc1 [Compound 364] | > 5.00 | – | – | – | 50 to 80 | 10 to 50 | – |

Second part, led by results:

| pIC50 [2, 4] | SMILES | inhibition at 10 µM [1, 3] [%] | inhibition at 5 µM [1, 5] [%] | inhibition at 25 µM ([1]; HeLa or A431 cells) [%] | inhibition at 5 µM [1] [%] | inhibition at 10 µM [1] [%] | pIC50 [2, 6] |
| --- | --- | --- | --- | --- | --- | --- | --- |
| > 5.00 | CC[C@H](C)[C@H](NC(=O)[C@@H]1Cc2ccc(cc2)OCC(=O)N[C@H](Cc2cccs2)C(=O)N[C@@H](Cc2ccc(-c3ccccc3)cc2)C(=O)N[C@H](CCc2ccccc2)C(=O)N1)C(=O)O [Compound 307] | < 10 | – | – | – | – | – |
| > 5.00 | O=C(O)[C@@H]1Cc2ccc(cc2)NC(=O)[C@H](O)[C@@H](O)C(=O)N[C@H](Cc2cccs2)C(=O)N[C@@H](Cc2ccc(-c3ccccc3)cc2)C(=O)N[C@H](CCc2ccccc2)C(=O)N1 [Compound 289] | < 10 | < 10 | – | – | – | – |
| 4.52 to 5.00 | O=C(O)CNC(=O)[C@@H]1Cc2ccc(cc2)NC(=O)CCC(=O)N[C@H](Cc2cccs2)C(=O)N[C@@H](Cc2ccc(-c3ccccc3)cc2)C(=O)N[C@H](Cc2ccccc2)C(=O)N1 [Compound 19] ([d2Thi][Bip][dF][Phe(4-NH2)]G-OH; linker N-4 via Suc) | – | – | < 10 | – | – | – |
| 4.00 to 4.52 | C[C@@H](NC(=O)[C@@H]1Cc2ccc(cc2)NC(=O)CCC(=O)N[C@H](Cc2cccs2)C(=O)N[C@@H](Cc2ccc(-c3ccccc3)cc2)C(=O)N[C@H](Cc2ccccc2)C(=O)N1)C(=O)O [Compound 24] ([d2Thi][Bip][dF][Phe(4-NH2)][dA]-OH; linker N-4 via Suc) | – | – | < 10 | – | – | – |
| > 5.00 | O=C(O)CNC(=O)[C@@H]1Cc2ccc(cc2)OCC(=O)N[C@H](Cc2cccs2)C(=O)N[C@@H](Cc2ccc(-c3ccccc3)cc2)C(=O)N[C@H](CCc2ccccc2)C(=O)N1 [Compound 321] | 10 to 50 | < 10 | – | – | – | – |
| > 5.00 | O=C(O)[C@H](Cc1ccccc1)NC(=O)[C@@H]1Cc2ccc(cc2)NC(=O)[C@H](O)[C@@H](O)C(=O)N[C@H](Cc2cccs2)C(=O)N[C@@H](Cc2ccc(-c3ccccc3)cc2)C(=O)N[C@H](CCc2ccccc2)C(=O)N1 [Compound 350] | 10 to 50 | 10 to 50 | – | – | – | – |
| < 4.00 | O=C1CCC(=O)N[C@@H](Cc2cccs2)C(=O)N[C@@H](Cc2ccc(-c3ccccc3)cc2)C(=O)N[C@H](Cc2ccccc2)C(=O)N[C@H](C(=O)O)Cc2ccc(cc2)N1 [Compound 43] ([2Thi][Bip][dF][Phe(4-NH2)]-OH; linker N-4 via Suc) | – | – | < 10 | – | – | – |
| > 5.00 | C[C@@H](NC(=O)[C@@H]1Cc2ccc(cc2)OCC(=O)N[C@@H](Cc2cccs2)C(=O)N[C@@H](Cc2ccc(-c3ccccc3)cc2)C(=O)N[C@@H](Cc2ccccc2)C(=O)N1)C(=O)O [Compound 341] | < 10 | – | – | – | – | – |
| > 5.00 | O=C(O)CCCNC(=O)[C@@H]1Cc2ccc(cc2)OCC(=O)N[C@@H](Cc2cccs2)C(=O)N[C@H](Cc2ccc(-c3ccccc3)cc2)C(=O)N[C@@H](Cc2ccccc2)C(=O)N1 [Compound 386] | < 10 | < 10 | – | – | – | – |
| > 5.00 | COC(=O)[C@H](CC(=O)O)NC(=O)[C@@H]1Cc2ccc(cc2)OCC(=O)N[C@@H](Cc2cccs2)C(=O)N[C@H](Cc2ccc(-c3ccccc3)cc2)C(=O)N[C@@H](Cc2ccccc2)C(=O)N1 [Compound 388] | 10 to 50 | < 10 | – | – | – | – |
